Assay results from US20210395327A1, “Growth Hormone-Releasing Hormone Antagonists and Uses Thereof” (United States Government As Represented By The Department …, priority 2019, published 2021).
Entries after “also recorded” stand apart in the source; their conditions may differ. Values belong to the molecule of their own block, whether it stands above or below them. Non-standard residues stand in square brackets, D forms with d. Residues, ends and D or L forms follow the SMILES beside them. *: point of attachment. Phenylacetyl(2,3,4,5,6-F5) = O=C(Cc1c(F)c(F)c(F)c(F)c1F)*; Phe(F5) = N[C@@H](Cc1c(F)c(F)c(F)c(F)c1F)C(=O)O; Phe(4-Cl) = N[C@@H](Cc1ccc(Cl)cc1)C(=O)O; hArg = N=C(N)NCCCC[C@H](N)C(=O)O; 12Ado = NCCCCCCCCCCCC(=O)O; Nle = CCCC[C@H](N)C(=O)O; Orn = NCCC[C@H](N)C(=O)O; Abu = CC[C@H](N)C(=O)O

How the values were obtained:
[1] = system: CFPAC-1 pancreatic cancer cells; test: In vitro cell viability, CFPAC-1; type: cell-based, human; details: for In vitro relative inhibitory potency in comparison to MIA-602, CFPAC-1: Table 3B, 5 μM for 72 H, MIA-602 = 1
Procedure, shortened: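 Viability by CellTiter 96 aqueous one solution (MTS) after 72 h exposure to antagonist at 5 μM (some at 2 μM), following 24 h starvation in 0.5% FBS. Results given as percentage inhibition relative to MIA602.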

[2] = target: T1, membrane GHRH-receptors on human anterior pituitary cells (Homo sapiens, UniProt Q02643); test: Receptor binding, displacement of 125I-[His1,Nle27]-hGH-RH(1-32)NH2 on human pituitary membranes; details: for IC50: membrane receptors on human anterior pituitary cells, mean of two to three determinations, read-out: IC50; for binding affinity to membrane receptors of human pituitary cells (in words): competitive binding, human pituitary membrane fractions
T1 construct: Human pituitary was purchased from the National Hormone and Peptide Program; tissue National Hormone and Peptide Program; host or cells: human pituitary (membrane fractions)
T1 sequence (Q02643 23-423): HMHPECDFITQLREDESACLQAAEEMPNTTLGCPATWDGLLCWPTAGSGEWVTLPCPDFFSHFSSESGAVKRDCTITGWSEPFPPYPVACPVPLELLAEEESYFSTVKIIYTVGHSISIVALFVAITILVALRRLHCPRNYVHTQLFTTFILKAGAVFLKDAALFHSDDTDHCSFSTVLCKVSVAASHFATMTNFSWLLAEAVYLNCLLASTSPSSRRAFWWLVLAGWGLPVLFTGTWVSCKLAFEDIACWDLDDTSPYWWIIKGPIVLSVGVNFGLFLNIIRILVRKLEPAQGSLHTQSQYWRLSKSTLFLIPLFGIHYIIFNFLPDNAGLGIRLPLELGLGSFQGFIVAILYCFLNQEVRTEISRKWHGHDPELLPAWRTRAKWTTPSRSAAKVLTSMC
Procedure, shortened: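 Membrane fractions from human pituitary; peptides displace 125I-[His1,Nle27]-hGH-RH(1-32)NH2. IC50 is the dose giving 50% inhibition of specific binding, from duplicate tubes. Relative affinity is the ratio of test IC50 to hGH-RH(1-29)NH2 IC50.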

Compound: CCCC[C@H](NC(=O)[C@@H](NC(=O)[C@H](CC(=O)O)NC(=O)[C@H](CCC(N)=O)NC(=O)[C@H](CC(C)C)NC(=O)[C@H](CC(C)C)NC(=O)[C@H](CCCCN)NC(=O)[C@H](CCCNC(=N)N)NC(=O)[C@H](C)NC(=O)[C@H](CO)NC(=O)[C@H](CC(C)C)NC(=O)[C@H](CCC(N)=O)NC(=O)[C@H](CC)NC(=O)[C@H](CC(C)C)NC(=O)[C@@H](NC(=O)[C@H](CCCCN)NC(=O)[C@H](CCCNC(=N)N)NC(=O)[C@H](Cc1ccc(OC)cc1)NC(=O)[C@H](CCCCNC(=N)N)NC(=O)[C@H](C)NC(=O)[C@@H](NC(=O)[C@H](Cc1c(F)c(F)c(F)c(F)c1F)NC(=O)[C@@H](NC(=O)[C@H](C)NC(=O)[C@H](CC(=O)O)NC(=O)[C@@H](CCCNC(=N)N)NC(=O)[C@H](Cc1ccc(O)cc1)NC(=O)CCCCCCCCCCCNC(=O)Cc1c(F)c(F)c(F)c(F)c1F)[C@@H](C)CC)[C@@H](C)O)C(C)C)[C@@H](C)CC)C(=O)N[C@H](CCCNC(=N)N)C(=O)N[C@@H](CCCCNC(=N)N)C(=O)NC [AVR-235] ({Phenylacetyl(2,3,4,5,6-F5)-12Ado}-Y[dR]DAI[Phe(F5)]TA[hArg]Y(Me)RKVL[Abu]QLSARKLLQDI[Nle][dR][hArg]-NHMe)
In vitro relative inhibitory potency in comparison to MIA-602, CFPAC-1 [1]: 1.497
relative inhibitory potency in comparison to MIA-602, Pancreatic CFPAC-1 ([1]; antagonist 5 μM for 72 h, cell proliferation assay, MIA602 = 1): 1.399

Compound: CCCC[C@H](NC(=O)[C@@H](NC(=O)[C@H](CC(=O)O)NC(=O)[C@H](CCC(N)=O)NC(=O)[C@H](CC(C)C)NC(=O)[C@H](CC(C)C)NC(=O)[C@H](CCCCN)NC(=O)[C@H](CCCNC(=N)N)NC(=O)[C@H](C)NC(=O)[C@H](CO)NC(=O)[C@H](CC(C)C)NC(=O)[C@H](CCC(N)=O)NC(=O)[C@H](CC)NC(=O)[C@H](CC(C)C)NC(=O)[C@@H](NC(=O)[C@H](CCCCN)NC(=O)[C@H](CCCNC(=N)N)NC(=O)[C@H](Cc1ccc(OC)cc1)NC(=O)[C@H](CCCCNC(=N)N)NC(=O)[C@H](CC(N)=O)NC(=O)[C@@H](NC(=O)[C@H](Cc1ccc(Cl)cc1)NC(=O)[C@@H](NC(=O)[C@H](C)NC(=O)[C@H](CC(=O)O)NC(=O)[C@@H](CCCNC(=N)N)NC(=O)[C@H](Cc1ccc(O)cc1)NC(=O)CCCCCCCCCCCNC(=O)Cc1c(F)c(F)c(F)c(F)c1F)[C@@H](C)CC)[C@@H](C)O)C(C)C)[C@@H](C)CC)C(=O)N[C@H](CCCNC(=N)N)C(=O)N[C@@H](CCCCNC(=N)N)C(=O)NCCCCCCCCCCCC(N)=O [AVR-333, 5FPhAC-Ada-Tyr-DArg-Asp-Ala-Ile-Cpa-Thr-Asn-Har-Tyr(Me)-Arg-Lys-Val-Leu-Abu-Gln-Leu-Ser-Ala-Arg-Lys-Leu-Leu-Gln-Asp-Ile-Nle-DArg-Har-Ada-NH2] ({Phenylacetyl(2,3,4,5,6-F5)-12Ado}-Y[dR]DAI[Phe(4-Cl)]TN[hArg]Y(Me)RKVL[Abu]QLSARKLLQDI[Nle][dR][hArg][12Ado]-NH2)
In vitro relative inhibitory potency in comparison to MIA-602, CFPAC-1 [1]: 2.288
IC50 [2]: 0.3 nM

Compound: CCCC[C@H](NC(=O)[C@@H](NC(=O)[C@H](CC(=O)O)NC(=O)[C@H](CCC(N)=O)NC(=O)[C@H](CC(C)C)NC(=O)[C@H](CC(C)C)NC(=O)[C@H](CCCCN)NC(=O)[C@H](CCCNC(=N)N)NC(=O)[C@H](C)NC(=O)[C@H](CO)NC(=O)[C@H](CC(C)C)NC(=O)[C@H](CCC(N)=O)NC(=O)[C@H](CC)NC(=O)[C@H](CC(C)C)NC(=O)[C@@H](NC(=O)[C@H](CCCCN)NC(=O)[C@H](CCCNC(=N)N)NC(=O)[C@H](Cc1c(F)c(F)c(F)c(F)c1F)NC(=O)[C@H](CCCCNC(=N)N)NC(=O)[C@H](C)NC(=O)[C@@H](NC(=O)[C@H](Cc1ccc(Cl)cc1)NC(=O)[C@@H](NC(=O)[C@H](C)NC(=O)[C@H](CC(=O)O)NC(=O)[C@@H](CCCNC(=N)N)NC(=O)[C@H](Cc1ccc(O)cc1)NC(=O)CCCCCCCCCCCNC(=O)Cc1c(F)c(F)c(F)c(F)c1F)[C@@H](C)CC)[C@@H](C)O)C(C)C)[C@@H](C)CC)C(=O)N[C@H](CCCNC(=N)N)C(=O)N[C@@H](CCCCNC(=N)N)C(=O)NCCCCCCCCCCCC(=O)NC [AVR-354] ({Phenylacetyl(2,3,4,5,6-F5)-12Ado}-Y[dR]DAI[Phe(4-Cl)]TA[hArg][Phe(F5)]RKVL[Abu]QLSARKLLQDI[Nle][dR][hArg][12Ado]-NHMe)
In vitro relative inhibitory potency in comparison to MIA-602, CFPAC-1 [1]: 1.67
binding affinity to membrane receptors of human pituitary cells (in words) [2]: higher binding affinity in comparison to MIA-602; also recorded: highest binding affinities

The next lines start with results.

IC50 [2]: 0.25 nM
Compound: CCCC[C@H](NC(=O)[C@@H](NC(=O)[C@H](CC(=O)O)NC(=O)[C@H](CCC(N)=O)NC(=O)[C@H](CC(C)C)NC(=O)[C@H](CC(C)C)NC(=O)[C@H](CCCN)NC(=O)[C@H](Cc1c[nH]cn1)NC(=O)[C@H](C)NC(=O)[C@H](CO)NC(=O)[C@H](CC(C)C)NC(=O)[C@H](CCC(N)=O)NC(=O)[C@H](CC)NC(=O)[C@H](CC(C)C)NC(=O)[C@@H](NC(=O)[C@H](CCCN)NC(=O)[C@H](Cc1c[nH]cn1)NC(=O)[C@H](Cc1c(F)c(F)c(F)c(F)c1F)NC(=O)[C@H](CCCCNC(=N)N)NC(=O)[C@H](C)NC(=O)[C@@H](NC(=O)[C@H](Cc1ccc(Cl)cc1)NC(=O)[C@@H](NC(=O)[C@H](C)NC(=O)[C@H](CC(=O)O)NC(=O)[C@@H](CCCNC(=N)N)NC(=O)[C@H](Cc1ccc(O)cc1)NC(=O)CCCCCCCCCCCNC(=O)Cc1c(F)c(F)c(F)c(F)c1F)[C@@H](C)CC)[C@@H](C)O)C(C)C)[C@@H](C)CC)C(=O)N[C@H](CCCNC(=N)N)C(=O)N[C@@H](CCCCNC(=N)N)C(=O)NCCCCCCCCCCCC(=O)NC [AVR-543, 5FPhAC-Ada-Tyr-DArg-Asp-Ala-Ile-Cpa-Thr-Ala-Har-5FPhe-His-Orn-Val-Leu-Abu-Gln-Leu-Ser-Ala-His-Orn-Leu-Leu-Gln-Asp-Ile-Nle-DArg-Har-Ada-NHCH3] ({Phenylacetyl(2,3,4,5,6-F5)-12Ado}-Y[dR]DAI[Phe(4-Cl)]TA[hArg][Phe(F5)]H[Orn]VL[Abu]QLSAH[Orn]LLQDI[Nle][dR][hArg][12Ado]-NHMe)
In vitro relative inhibitory potency in comparison to MIA-602, CFPAC-1 [1]: 2.05

IC50 [2]: 0.15 nM
Compound: CCCC[C@H](NC(=O)[C@@H](NC(=O)[C@H](CC(=O)O)NC(=O)[C@H](CCC(N)=O)NC(=O)[C@H](CC(C)C)NC(=O)[C@H](CC(C)C)NC(=O)[C@H](CCCN)NC(=O)[C@H](Cc1c[nH]cn1)NC(=O)[C@H](C)NC(=O)[C@H](CO)NC(=O)[C@H](CC(C)C)NC(=O)[C@H](CCC(N)=O)NC(=O)[C@H](CC)NC(=O)[C@H](CC(C)C)NC(=O)[C@@H](NC(=O)[C@H](CCCN)NC(=O)[C@H](Cc1c[nH]cn1)NC(=O)[C@H](Cc1ccc(OC)cc1)NC(=O)[C@H](CCCCNC(=N)N)NC(=O)[C@H](C)NC(=O)[C@@H](NC(=O)[C@H](Cc1c(F)c(F)c(F)c(F)c1F)NC(=O)[C@@H](NC(=O)[C@H](C)NC(=O)[C@H](CC(=O)O)NC(=O)[C@@H](CCCNC(=N)N)NC(=O)[C@H](Cc1ccc(O)cc1)NC(=O)CCCCCCCCCCCNC(=O)Cc1c(F)c(F)c(F)c(F)c1F)[C@@H](C)CC)[C@@H](C)O)C(C)C)[C@@H](C)CC)C(=O)N[C@H](CCCNC(=N)N)C(=O)N[C@@H](CCCCNC(=N)N)C(=O)NCCCCCCCCCCCC(N)=O [AVR-553, 5FPhAC-Ada-Tyr-DArg-Asp-Ala-Ile-5FPhe-Thr-Ala-Har-Tyr(Me)-His-Orn-Val-Leu-Abu-Gln-Leu-Ser-Ala-His-Orn-Leu-Leu-Gln-Asp-Ile-Nle-DArg-Har-Ada-NH2] ({Phenylacetyl(2,3,4,5,6-F5)-12Ado}-Y[dR]DAI[Phe(F5)]TA[hArg]Y(Me)H[Orn]VL[Abu]QLSAH[Orn]LLQDI[Nle][dR][hArg][12Ado]-NH2)
binding affinity to membrane receptors of human pituitary cells (in words) [2]: higher binding affinity in comparison to MIA-602; also recorded: highest binding affinities
